Holding throughout (assay): relative viability (nuclei count vs DMSO), 5 days (fraction); higher = more cells survive
Compound in test [1]: CNC(=O)c1ccccc1Sc1ccc2c(/C=C/c3ccccn3)n[nH]c2c1 [Axitinib] + Cc1nc(Nc2ncc(C(=O)Nc3c(C)cccc3Cl)s2)cc(N2CCN(CCO)CC2)n1 [Dasatinib] (partner 0.075 µM)
An outline of the steps: (§1)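 Lung cancer cell lines in 1536-well plates got either a single drug or a fixed anchor-drug dose together with five library-drug doses (not always all listed) in √10 steps, by pin tool, on the day after seeding. Nuclei were counted after 5 days, and relative viability is the treated-to-vehicle ratio of nuclei counts. Values are medians of duplicate plates.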

Compound in test [2]: Nc1nc(Nc2ccc3c(c2)CC[C@@H](N2CCCC2)CC3)nn1-c1cc2c(nn1)-c1ccccc1CCC2 [Bemcentinib] + Nc1ncn([C@H]2C[C@H](O)[C@@H](CO)O2)c(=O)n1 [Decitabine] (partner 2 µM)
An outline of the steps: as §1

Compound in test [3]: CNC(=O)c1ccccc1Sc1ccc2c(/C=C/c3ccccn3)n[nH]c2c1 [Axitinib] + NC(=O)Nc1cc(-c2cccc(F)c2)sc1C(=O)N[C@H]1CCCNC1 [AZD7762] (partner 0.2 µM)
An outline of the steps:
as §1

Compound in test [4]: CNC(=O)c1ccccc1Sc1ccc2c(/C=C/c3ccccn3)n[nH]c2c1 [Axitinib] + N=C(N)NC(=N)NCCc1ccccc1 [Phenformin] (partner 250 µM)
An outline of the steps: as §1

On to HCC-15, for which the relative viability in test [1] (first compound 0.005 µM) worked out at 0.658; in test [1] (first compound 0.01581 µM), 0.673; in test [1] (first compound 0.05 µM), 0.658; in test [1] (first compound 0.1581 µM), 0.56; in test [1] (first compound 0.5 µM), 0.622; in test [2] (first compound 0.04 µM) it was 0.641. Besides, the relative viability came out at 0.696 in test [2] (first compound 0.1265 µM); 0.71 in test [2] (first compound 0.4 µM); 0.646 in test [2] (first compound 1.265 µM); 0.661 in test [2] (first compound 4 µM); 1.36 in test [3] (first compound 0.005 µM); 1.13 in test [3] (first compound 0.01581 µM). Moreover, the relative viability worked out at 1.35 in test [3] (first compound 0.05 µM); 1.14 in test [3] (first compound 0.1581 µM); 1.18 in test [3] (first compound 0.5 µM); 0.469 in test [4] (first compound 0.005 µM); 0.458 in test [4] (first compound 0.01581 µM); 0.51 in test [4] (first compound 0.05 µM). Further, the results for the relative viability in test [4] (first compound 0.1581 µM) and in test [4] (first compound 0.5 µM) were 0.472 and 0.464, respectively.

Consider HCC-44, for which the relative viability in test [2] (first compound 0.04 µM) was determined as 0.954; in test [2] (first compound 0.1265 µM), 0.986; in test [2] (first compound 0.4 µM), 0.947; in test [2] (first compound 1.265 µM), 0.978; in test [2] (first compound 4 µM), 0.957; in test [3] (first compound 0.005 µM) it was 1.07. Also, the relative viability in test [3] (first compound 0.01581 µM) amounted to 1.04; in test [3] (first compound 0.05 µM) it was 1.01; in test [3] (first compound 0.1581 µM), 0.992; in test [3] (first compound 0.5 µM), 1.03; in test [4] (first compound 0.005 µM) it was 0.165; in test [4] (first compound 0.01581 µM), 0.27. Also, the relative viability in test [4] (first compound 0.05 µM) is 0.211; in test [4] (first compound 0.1581 µM), 0.198; in test [4] (first compound 0.5 µM), 0.176.

As for HCC-78, the relative viability in test [1] (first compound 0.005 µM) turned out to be 0.328; in test [1] (first compound 0.01581 µM), 0.288; in test [1] (first compound 0.05 µM), 0.534; in test [1] (first compound 0.1581 µM), 0.387; in test [1] (first compound 0.5 µM), 0.329; in test [2] (first compound 0.04 µM) it was 0.691. Also, the relative viability amounted to 0.655 in test [2] (first compound 0.1265 µM); 0.636 in test [2] (first compound 0.4 µM); 0.655 in test [2] (first compound 1.265 µM); 0.637 in test [2] (first compound 4 µM); 0.787 in test [3] (first compound 0.005 µM); 0.58 in test [3] (first compound 0.01581 µM). Besides, the relative viability in test [3] (first compound 0.05 µM) was determined as 0.857; in test [3] (first compound 0.1581 µM), 0.708; in test [3] (first compound 0.5 µM), 0.498; in test [4] (first compound 0.005 µM) it was 0.67; in test [4] (first compound 0.01581 µM), 0.667; in test [4] (first compound 0.05 µM), 0.752. In addition, the relative viability in test [4] (first compound 0.1581 µM) came to 0.657; in test [4] (first compound 0.5 µM), 0.474.

For HCC-366, the relative viability in test [1] (first compound 0.005 µM) is 0.7; in test [1] (first compound 0.01581 µM), 0.646; in test [1] (first compound 0.05 µM) it was 0.711; in test [1] (first compound 0.1581 µM), 0.581; in test [1] (first compound 0.5 µM) it was 0.455; in test [2] (first compound 0.04 µM), 0.335. Besides, the relative viability is 0.362 in test [2] (first compound 0.1265 µM); 0.395 in test [2] (first compound 0.4 µM); 0.369 in test [2] (first compound 1.265 µM); 0.341 in test [2] (first compound 4 µM); 0.307 in test [3] (first compound 0.005 µM); 0.206 in test [3] (first compound 0.01581 µM). The relative viability in test [3] (first compound 0.05 µM) is 0.377; in test [3] (first compound 0.1581 µM) it was 0.337; in test [3] (first compound 0.5 µM), 0.405; in test [4] (first compound 0.005 µM) it was 0.689; in test [4] (first compound 0.01581 µM) it was 0.615; in test [4] (first compound 0.05 µM), 0.631. Further, the relative viability amounted to 0.553 in test [4] (first compound 0.1581 µM) and 0.653 in test [4] (first compound 0.5 µM).
